Article PMC10569036

Columns and labels:
[1] = shake flask on a mixture of 185; loss from the water phase only; LC-Orbitrap peak areas; conditions: room
[2] = shake flask on a mixture of 185; loss from the water phase only; LC-QTOF peak areas; conditions: room

Row | log partition 1-octanol / HPLC water, unbuffered, traces of methanol / DMSO [1] | log partition butyl acetate / HPLC water, unbuffered, traces of methanol / DMSO [1] | log partition chloroform / HPLC water, unbuffered, traces of methanol / DMSO [1] | log partition cyclohexane / HPLC water, unbuffered, traces of methanol / DMSO [1] | log partition dichloromethane / HPLC water, unbuffered, traces of methanol / DMSO [1] | log partition n-hexane / HPLC water, unbuffered, traces of methanol / DMSO [1] | log partition n-octane / HPLC water, unbuffered, traces of methanol / DMSO [1] | log partition n-undecane / HPLC water, unbuffered, traces of methanol / DMSO [1] | log partition oleylalcohol / HPLC water, unbuffered, traces of methanol / DMSO [1] | log partition toluene / HPLC water, unbuffered, traces of methanol / DMSO [1] | Compound | log partition 1-octanol / HPLC water, unbuffered, traces of methanol / DMSO [2] | log partition butyl acetate / HPLC water, unbuffered, traces of methanol / DMSO [2] | log partition chloroform / HPLC water, unbuffered, traces of methanol / DMSO [2] | log partition cyclohexane / HPLC water, unbuffered, traces of methanol / DMSO [2] | log partition dichloromethane / HPLC water, unbuffered, traces of methanol / DMSO [2] | log partition n-hexane / HPLC water, unbuffered, traces of methanol / DMSO [2] | log partition n-octane / HPLC water, unbuffered, traces of methanol / DMSO [2] | log partition n-undecane / HPLC water, unbuffered, traces of methanol / DMSO [2] | log partition oleylalcohol / HPLC water, unbuffered, traces of methanol / DMSO [2] | log partition toluene / HPLC water, unbuffered, traces of methanol / DMSO [2]
1 | -0.03015 log10 | -0.1328 log10 | 0.1061 log10 | -0.9043 log10 | -0.3816 log10 | -0.631 log10 | -0.6854 log10 | -0.8904 log10 | -0.3433 log10 | -1.077 log10 | Cc1cc(C)nc(NS(=O)(=O)c2ccc(N)cc2)n1 | -0.08641 log10 | -0.1162 log10 | -0.2658 log10 | -0.9757 log10 | -0.5411 log10 | -1.336 log10 | -1.319 log10 | -1.455 log10 | -0.5276 log10 | -1.085 log10
2 | 1.814 log10 | 2.093 log10 | 1.499 log10 | 0.0278 log10 | 1.694 log10 | -0.1668 log10 | -0.1168 log10 | -1.167 log10 | 1.762 log10 | 0.9569 log10 | c1ccc2[nH]c(-c3cscn3)nc2c1 | 0.8781 log10 | 0.7498 log10 | 0.5738 log10 | -1.051 log10 | 0.733 log10 | -0.9485 log10 | -1.018 log10 | -1.324 log10 | 0.7334 log10 | 0.2898 log10

Row | Compound | log partition 1-octanol / HPLC water, unbuffered, traces of methanol / DMSO [1] | log partition butyl acetate / HPLC water, unbuffered, traces of methanol / DMSO [1] | log partition chloroform / HPLC water, unbuffered, traces of methanol / DMSO [1] | log partition cyclohexane / HPLC water, unbuffered, traces of methanol / DMSO [1] | log partition dichloromethane / HPLC water, unbuffered, traces of methanol / DMSO [1] | log partition n-hexane / HPLC water, unbuffered, traces of methanol / DMSO [1] | log partition n-octane / HPLC water, unbuffered, traces of methanol / DMSO [1] | log partition n-undecane / HPLC water, unbuffered, traces of methanol / DMSO [1] | log partition oleylalcohol / HPLC water, unbuffered, traces of methanol / DMSO [1] | log partition toluene / HPLC water, unbuffered, traces of methanol / DMSO [1] | log partition 1-octanol / HPLC water, unbuffered, traces of methanol / DMSO [2] | log partition butyl acetate / HPLC water, unbuffered, traces of methanol / DMSO [2] | log partition chloroform / HPLC water, unbuffered, traces of methanol / DMSO [2] | log partition cyclohexane / HPLC water, unbuffered, traces of methanol / DMSO [2] | log partition dichloromethane / HPLC water, unbuffered, traces of methanol / DMSO [2] | log partition n-hexane / HPLC water, unbuffered, traces of methanol / DMSO [2] | log partition n-octane / HPLC water, unbuffered, traces of methanol / DMSO [2] | log partition n-undecane / HPLC water, unbuffered, traces of methanol / DMSO [2] | log partition oleylalcohol / HPLC water, unbuffered, traces of methanol / DMSO [2] | log partition toluene / HPLC water, unbuffered, traces of methanol / DMSO [2]
3 | c1coc(-c2nc3ccccc3[nH]2)c1 | 1.137 log10 | 1.189 log10 | 0.9478 log10 | -0.1735 log10 | 1.025 log10 | -0.2475 log10 | -0.314 log10 | -0.8377 log10 | 1.389 log10 | 0.5283 log10 | 1.514 log10 | 1.818 log10 | 1.228 log10 | -0.8199 log10 | 1.187 log10 | -1.048 log10 | -0.9024 log10 | -1.111 log10 | 1.545 log10 | 0.6693 log10
